Results published in US20070128217A1 (priority 2003, published 2007).

Legend:
[1] = tested on: control sera (pooled serum of ten healthy LUMC hospital workers; commercial negative donor pooled serum from the Dutch bloodbank); assay type: binding, human; parameters: Binding of Control serum LUMC to linear peptides / Binding of Control serum Blood-bank to linear peptides / Binding of Control serum LUMC to looped peptides / Binding of Control Serum Blood-Bank to Looped peptides / Binding of Control serum LUMC to linear peptides of the protein M of SARS-CoV Urbani / Binding of Control serum Blood-bank to linear peptides of the protein M of SARS-CoV Urbani / Binding of Control serum LUMC to looped peptides of the protein M of SARS-CoV Urbani / Binding of Control Serum Blood-Bank to Looped peptides of the protein M of SARS-CoV Urbani: unit not given here
[2] = tested on: recombinant human anti-SARS-CoV antibody 03-018; assay type: binding; parameters: Binding of antibody 03-018 to linear peptides of the N protein of SARS-CoV Urbani / Binding of antibody 03-018 to looped/cyclic peptides of the N protein of SARS-CoV Urbani: unit not given here
[3] = tested on: antibodies in sera from SARS patients (sera 1a, 1b, 2, 6, 37, 62, London, SARS-yellow, SARS-green); assay type: binding, human; parameters: Binding of serum 6 to linear peptides of protein X1 of SARS-CoV Urbani / Binding of serum 37 to linear peptides of protein X1 of SARS-CoV Urbani / Binding of serum 6 to looped/cyclic peptide (PEPSCAN-ELISA) / Binding of serum 37 to looped/cyclic peptide (PEPSCAN-ELISA) / Binding of serum 37 to looped/cyclic peptides of protein X1 of SARS-CoV Urbani / Binding of serum 6 to linear peptides of protein X2 / Binding of serum 37 to linear peptides of protein X2 / Binding of serum 37 to looped/cyclic peptides of protein X2 of SARS-CoV Urbani / Binding of serum 6 to linear peptides of protein M of SARS-CoV Urbani / Binding of serum 37 to linear peptides of protein M of SARS-CoV Urbani / Binding of serum 6 to looped/cyclic peptides of protein M of SARS-CoV Urbani / Binding of serum 37 to looped/cyclic peptides of protein M of SARS-CoV Urbani / Binding of serum 6 to linear peptides of protein X3 of SARS-CoV Urbani / Binding of serum 37 to linear peptides of protein X3 of SARS-CoV Urbani / Binding of serum 37 to looped/cyclic peptides of protein X3 of SARS-CoV Urbani / Binding of serum 6 to linear peptides of protein X4 of SARS-CoV Urbani / Binding of serum 37 to linear peptides of protein X4 of SARS-CoV Urbani / Binding of serum 37 to looped/cyclic peptides of protein X4 of SARS-CoV Urbani / Binding of serum 6 to linear peptides of protein X5 of SARS-CoV Urbani / Binding of serum 37 to linear peptides of protein X5 of SARS-CoV Urbani / Binding of serum 37 to looped/cyclic peptides of protein X5 of SARS-CoV Urbani / Binding of serum 6 to linear peptides of protein N of SARS-CoV Urbani / Binding of serum 37 to linear peptides of protein N of SARS-CoV Urbani / Binding of serum 6 to linear peptide (PEPSCAN-ELISA) / Binding of serum 1a to looped/cyclic peptides of protein N of SARS-CoV Urbani / Binding of serum 1b to looped/cyclic peptides of protein N of SARS-CoV Urbani / Binding of serum 2 to looped/cyclic peptides of protein N of SARS-CoV Urbani / Binding of serum 6 to looped/cyclic peptides of protein N of SARS-CoV Urbani / Binding of serum 37 to looped/cyclic peptides of protein N of SARS-CoV Urbani / Binding of serum 62 to looped/cyclic peptides of protein N of SARS-CoV Urbani / Binding of serum London to looped/cyclic peptides of protein N of SARS-CoV Urbani / Binding of serum SARS-green to looped/cyclic peptides of protein N of SARS-CoV Urbani: unit not given here
[4] = tested on: rabbit serum obtained by immunizing a rabbit with the SARS-CoV strain Frankfurt 1; assay type: binding; parameters: Binding of a rabbit serum to linear peptides / Binding of a rabbit serum to looped peptides / Rabbit serum linear peptides / Rabbit serum looped peptides / Binding of a rabbit serum to linear peptides of protein N of SARS-CoV Urbani (Rabbit serum linear peptides) / Binding of a rabbit serum to looped/cyclic peptides of protein N of SARS-CoV Urbani (Rabbit serum looped peptides): unit not given here

| Sequence | Binding of Control Serum Blood-Bank to Looped peptides [1] | Binding of Control serum Blood-bank to linear peptides [1] | Binding of Control serum LUMC to linear peptides [1] | Binding of Control serum LUMC to looped peptides [1] | Binding of antibody 03-018 to linear peptides of the N protein of SARS-CoV Urbani [2] | Binding of antibody 03-018 to looped/cyclic peptides of the N protein of SARS-CoV Urbani [2] | Binding of serum 1a to looped/cyclic peptides of protein N of SARS-CoV Urbani [3] | Binding of serum 1b to looped/cyclic peptides of protein N of SARS-CoV Urbani [3] | Binding of serum 2 to looped/cyclic peptides of protein N of SARS-CoV Urbani [3] | Binding of serum 6 to looped/cyclic peptides of protein N of SARS-CoV Urbani [3] | Binding of serum 37 to looped/cyclic peptides of protein N of SARS-CoV Urbani [3] | Binding of serum 62 to looped/cyclic peptides of protein N of SARS-CoV Urbani [3] | Binding of serum London to looped/cyclic peptides of protein N of SARS-CoV Urbani [3] | Binding of serum SARS-green to looped/cyclic peptides of protein N of SARS-CoV Urbani [3] | Binding of serum SARS-yellow to looped/cyclic peptides of protein N of SARS-CoV Urbani [3] | Binding of a rabbit serum to linear peptides of protein N of SARS-CoV Urbani (Rabbit serum linear peptides) [4] | Binding of a rabbit serum to looped/cyclic peptides of protein N of SARS-CoV Urbani (Rabbit serum looped peptides) [4] | Binding of serum 1a to linear peptides of protein N of SARS-CoV Urbani [3] | Binding of serum 1b to linear peptides of protein N of SARS-CoV Urbani [3] | Binding of serum 2 to linear peptides of protein N of SARS-CoV Urbani [3] | further results |
| --- | --- | --- | --- | --- | --- | --- | --- | --- | --- | --- | --- | --- | --- | --- | --- | --- | --- | --- | --- | --- | --- |
| QQQQGQTVTKKSAAE | 0.2 | 0.6 | 0.6 | 0.2 | 0.1 | 0.2 | 0.3 | 0.1 | 0.3 | 0.1 | 0.3 | 0.2 | 0.2 | 0.0 | 0.1 | 0.3 | 0.0 |  |  |  | Binding of serum 1a to linear peptide (PEPSCAN-ELISA) [3]: 0.8; Binding of serum 1b to linear peptide (PEPSCAN-ELISA) [3]: 0.3; Binding of serum 2 to linear peptide (PEPSCAN-ELISA) [3]: 0.7; Binding of serum 6 to linear peptide (PEPSCAN-ELISA) [3]: 0.2; Binding of serum 37 to linear peptide (PEPSCAN-ELISA) [3]: 0.7; Binding of serum 62 to linear peptide (PEPSCAN-ELISA) [3]: 0.7; Binding of serum London to linear peptide (PEPSCAN-ELISA) [3]: 0.7; Binding of serum SARS-green to linear peptide (PEPSCAN-ELISA) [3]: 0.3; Binding of serum SARS-yellow to linear peptide (PEPSCAN-ELISA) [3]: 0.9 |
| QRQKKQPTVTLLPAA |  |  |  |  | 0.1 | 0.3 |  |  |  |  |  |  |  |  |  | 0.2 | 0.7 | 0.3 | 0.1 | 0.3 | Control Serum Blood-Bank Looped peptides [1]: 1.1; Control serum Blood-bank linear peptides [1]: 0.8; Control serum LUMC linear peptides [1]: 0.7; Control serum LUMC looped peptides [1]: 0.8; Binding of serum 6 to linear peptides of protein N of SARS-CoV Urbani [3]: 0.2; Binding of serum 37 to linear peptides of protein N of SARS-CoV Urbani [3]: 0.7; Binding of serum 62 to linear peptides of protein N of SARS-CoV Urbani [3]: 0.8; Binding of serum London to linear peptides of protein N of SARS-CoV Urbani [3]: 0.6; Binding of serum SARS-green to linear peptides of protein N of SARS-CoV Urbani [3]: 0.7; Binding of serum SARS-yellow to linear peptides of protein N of SARS-CoV Urbani [3]: 0.6; Recognition of the peptide by sera of SARS-CoV infected individuals, and form (linear, looped/cyclic) in which it is recognized [3]: recognized in looped/cyclic form |
| QRSAPRITFGGPTDS | 0.7 | 0.6 | 0.5 | 0.7 |  |  | 0.4 | 0.3 | 0.4 | 0.4 | 0.7 | 0.5 | 0.9 | 0.4 | 0.6 | 0.3 | 1.2 | 0.2 | 0.1 | 0.1 | Recognition of the peptide by antibody 03-018 [2]: recognized; Binding of serum 6 to linear peptides of protein N of SARS-CoV Urbani [3]: 0.1; Binding of serum 37 to linear peptides of protein N of SARS-CoV Urbani [3]: 0.6; Binding of serum 62 to linear peptides of protein N of SARS-CoV Urbani [3]: 0.6; Binding of serum London to linear peptides of protein N of SARS-CoV Urbani [3]: 0.5; Binding of serum SARS-green to linear peptides of protein N of SARS-CoV Urbani [3]: 0.2; Binding of serum SARS-yellow to linear peptides of protein N of SARS-CoV Urbani [3]: 0.5 |
| QSNQRSAPRITFGGP | 0.7 | 0.6 | 0.5 | 0.9 |  |  | 0.5 | 0.3 | 0.6 | 0.4 | 0.8 | 0.7 | 0.5 | 0.5 | 0.7 |  |  | 0.2 | 0.1 | 0.2 | Recognition of the peptide by antibody 03-018 [2]: recognized; Binding of serum 6 to linear peptides of protein N of SARS-CoV Urbani [3]: 0.1; Binding of serum 37 to linear peptides of protein N of SARS-CoV Urbani [3]: 0.7; Binding of serum 62 to linear peptides of protein N of SARS-CoV Urbani [3]: 0.7; Binding of serum London to linear peptides of protein N of SARS-CoV Urbani [3]: 0.4; Binding of serum SARS-green to linear peptides of protein N of SARS-CoV Urbani [3]: 0.5; Binding of serum SARS-yellow to linear peptides of protein N of SARS-CoV Urbani [3]: 0.5; Recognition of the peptide by the rabbit serum [4]: also recognized |
| QYNVTQAFGRRGPEQ | 0.8 | 0.7 | 0.6 | 0.8 | 0.1 | 0.3 | 0.4 | 0.2 | 0.4 | 0.4 | 0.7 | 0.6 | 0.5 | 0.4 | 0.5 |  |  |  |  |  | Binding of serum 1a to linear peptide (PEPSCAN-ELISA) [3]: 0.3; Binding of serum 1b to linear peptide (PEPSCAN-ELISA) [3]: 0.1; Binding of serum 2 to linear peptide (PEPSCAN-ELISA) [3]: 0.1; Binding of serum 6 to linear peptide (PEPSCAN-ELISA) [3]: 0.2; Binding of serum 37 to linear peptide (PEPSCAN-ELISA) [3]: 0.6; Binding of serum 62 to linear peptide (PEPSCAN-ELISA) [3]: 0.6; Binding of serum London to linear peptide (PEPSCAN-ELISA) [3]: 0.4; Binding of serum SARS-green to linear peptide (PEPSCAN-ELISA) [3]: 0.5; Binding of serum SARS-yellow to linear peptide (PEPSCAN-ELISA) [3]: 0.6; Recognition of the peptide by the rabbit serum [4]: recognized |
